Experimental data as given in ChEMBL document CHEMBL1157539, “Thousands of chemical starting points for antimalarial lead identification” (Nature, 2010).

test system: Plasmodium falciparum; test: GSK_TCMDC: Inhibition of Plasmodium falciparum 3D7 in whole erythrocytes, using parasite LDH activity as an index of growth.; format: functional, organism-based; conditions: Plasmodium falciparum, 3D7

Compared with Cc1nc2ccccc2c(=O)n1/N=C/c1ccccc1[N+](=O)[O-], CN(C(=O)c1ccc(Br)cc1)c1ccccc1[N+](=O)[O-] is 4.2-fold higher in XC50: 221 nM for the first, 926 nM for the second.

CCN(CC)CCN(Cc1ccc(-c2ccc(C(F)(F)F)cc2)cc1)C(=O)Cn1cc(CCCc2cccc(F)c2F)c(=O)c2ccccc21 and CCN(CC)CCN(Cc1ccc(-c2ccc(C(F)(F)F)cc2)cc1)C(=O)c1c[nH]c2ccc(Br)cc12 are within 1.5-fold of each other in XC50: 1060 nM for the first, 953 nM for the second.

O=C1COC2(CN1CC1CCN(Cc3ccc(O)c(Cl)c3)C1)c1ccccc1-c1ccccc12 (configuration not stated) and O=C(NCc1ccccc1)NC(CCCN1CCC(Oc2cccc(Cl)c2)CC1)c1ccc(Cl)c(Cl)c1 (configuration not stated) are within 1.5-fold of each other in XC50: 1060 nM for the first, 862 nM for the second.

Going from O=C(Nc1ccc(I)cc1)Nc1ccc(Cn2ncc(N3CCCNCC3)c(Cl)c2=O)cc1 to O=C(Nc1ccc(Cl)c(Cl)c1)Nc1ccc2nccc(N3CCNCC3)c2c1, the XC50 falls from 1120 nM to 262 nM (4.3-fold).

Compared with O=C(NC1CCC(CN2CCC(c3c[nH]c4ccccc34)CC2)CC1)c1cc2cccc([N+](=O)[O-])c2[nH]1 (configuration not stated), CCCc1c(C(=O)NC2CCC(CN3CCC(c4c[nH]c5ccccc45)CC3)CC2)cnn1-c1ccccc1 (configuration not stated) is 5.2-fold higher in XC50: 341 nM for the first, 1790 nM for the second.

CCCCc1ccccc1NS(=O)(=O)c1ccc(OC)c(N2CCNCC2)c1 and Cc1cc(OCCCN2CCC(NS(=O)(=O)c3cccc(Br)c3)CC2)c2ccccc2n1 are within 1.5-fold of each other in XC50: 1380 nM for the first, 1110 nM for the second.

First: Cc1cc2c(cc1C(F)(F)F)N(C(=O)Nc1ccc(C(=O)NCCN3CCCC3)cc1)CC2
Second: Cc1cc2c(cc1C(F)(F)F)N(C(=O)Nc1cc(OCCN(C)C)cc(C(F)(F)F)c1)CC2
The XC50 of the first is 2.2-fold lower: 321 nM for the first, 708 nM for the second.

COc1cccc(OC)c1OCCCON1C(=N)N=C(N)NC1(C)C and COc1ccc(CON2C(=N)N=C(N)NC2(C)C)cc1OC are within 1.5-fold of each other in XC50: 7.28 nM for the first, 6.06 nM for the second.

CC(C)(C)C1=CC(=NNC(=O)c2ccncc2)C=C(C(C)(C)C)C1=O and O=C(Nc1ccncc1)c1cc(C(=O)Nc2ccncc2)cc([N+](=O)[O-])c1 are within 1.5-fold of each other in XC50: 704 nM for the first, 614 nM for the second.

Compared with C(=NN=c1cc(-c2ccccc2)[nH]c2ccccc12)c1cccnc1, Cc1cc(=NN=Cc2ccc(F)cc2)c2cc(C(F)(F)F)ccc2[nH]1 is 5.4-fold lower in XC50: 1230 nM for the first, 228 nM for the second.

CCCCC(=O)N(CCOC)Cc1ccc(-c2ccc(CNCCC)cn2)cc1 and CCCC(C(=O)OCCN(CC)CC)(c1ccc(Cl)cc1)c1ccc(Cl)cc1 are within 1.5-fold of each other in XC50: 730 nM for the first, 880 nM for the second.

COc1ccc(-c2ccc(CNC3Cc4ccccc4C3)cc2)cc1S(=O)(=O)NCCN1CCCC1 and CN1CCC(NCc2cccc(-c3ccc(S(=O)(=O)NCCc4ccccn4)cc3)c2)CC1 are within 1.5-fold of each other in XC50: 798 nM for the first, 827 nM for the second.

First: Nc1cccc(CNCc2cccc(-c3ccc(-c4nc5ccccc5[nH]4)cc3)c2)c1
Second: c1cc(CNCCN2CCNCC2)cc(-c2ccc(-c3nc4ccccc4[nH]3)cc2)c1
The XC50 of the first is 2.6-fold lower: 415 nM for the first, 1080 nM for the second.

Going from COc1ccc(C(=O)C2CC2CN2CC=C(c3c[nH]c4ccc(OC)nc34)CC2)cc1 (configuration not stated) to CC[C@H]1CN2CC[C@H]1C[C@H]2[C@H](O)c1cc(-c2ccc(OC(F)(F)F)cc2)nc2ccc(OC)cc12, the XC50 falls from 479 nM to 51.1 nM (9.4-fold).

O=C(NC1CC1)c1ccc(N2CCC(Oc3ccc(F)cc3)CC2)nc1 and O=C(Nc1ccnc(N2CCCN(Cc3cccc(O)c3)CC2)c1)c1ccc(F)cc1 are within 1.5-fold of each other in XC50: 1090 nM for the first, 1480 nM for the second.

FC(F)(F)c1cnc(Sc2nnc(-c3ccco3)o2)c(Cl)c1 and Cc1cc(Cl)c(Cl)cc1NC(=O)Nc1cccc(C(F)(F)F)c1 are within 1.5-fold of each other in XC50: 791 nM for the first, 873 nM for the second.

Compared with O=C(Nc1cccc(-c2nn3ccccc3c2-c2ccnc(Nc3cccc(F)c3)n2)c1)c1c(F)ccc(F)c1F, O=C(Nc1cccc(-c2nc3ccccc3[nH]2)c1)c1cccc(NC(=O)c2ccco2)c1 is 2.4-fold lower in XC50: 856 nM for the first, 360 nM for the second.

Going from Cc1nc(-c2nc(N3CCC(O)CC3)ncc2-c2ccsc2)sc1C to CSC1=NC(=Nc2c(C)cccc2C)C2(CCC(C(C)(C)C)CC2)N1c1ccc(O)cc1 (configuration not stated), the XC50 falls from 939 nM to 250 nM (3.8-fold).

CCOC(=O)c1ccc2[nH]c(-c3ccc(C(=O)NC4CCN(Cc5ccccc5)CC4)s3)nc2c1 and Cc1cc2nc(-c3ccc(/C=C/C(=O)NC4CCN(Cc5ccccc5)CC4)cc3)[nH]c2cc1C are within 1.5-fold of each other in XC50: 745 nM for the first, 588 nM for the second.

CCCCCCC(C)c1cc(OCCN(CC)CC)c2c(c1)OC(C)(C)C=C2c1ccncc1 (configuration not stated) and CCCCCC(C)C(C)c1cc(OC(N)=O)c2c(c1)OC(C)(C)C=C2c1ccncc1 (configuration not stated) are within 1.5-fold of each other in XC50: 1260 nM for the first, 895 nM for the second.

CN1CCN(c2ccnc3ccc(NC(=O)Cc4ccc5ccccc5c4)cc23)CC1 and Cc1nc(-c2ccc(-c3ccc(C(=O)Nc4ccc(-n5ccnc5)c(N5CCN(C)CC5)c4)cc3)c(C)c2)no1 are within 1.5-fold of each other in XC50: 759 nM for the first, 834 nM for the second.

Compared with O=C(Nc1ccc(-c2ccc(-c3nc4cc(C(F)(F)F)ccc4[nH]3)cc2)cc1)Nc1ccc(F)c(F)c1F, NC(=O)c1cccc(C(=O)Nc2cccc(-c3ccc(-c4nc5cc(C(F)(F)F)ccc5[nH]4)cc3)c2)c1 is 2.4-fold higher in XC50: 217 nM for the first, 520 nM for the second.

O=C(CCNc1ccnc(NCC2CCCCC2)n1)Nc1ccccc1 and O=C(NC1CCCCC1)C(c1cccs1)N(CCc1ccccc1)C(=O)c1ccco1 (configuration not stated) are within 1.5-fold of each other in XC50: 1100 nM for the first, 1040 nM for the second.

O=C1CSc2ccc(CNC3CCN(CCc4c(Cl)cnc5ccc(F)cc45)CC3)nc2N1 and Cc1[nH]c2cc(F)ccc2c1C1=CCN(CCCCC2(C)C(=O)Nc3c(F)cccc32)CC1 (configuration not stated) are within 1.5-fold of each other in XC50: 427 nM for the first, 397 nM for the second.

O=C(/C=C/c1ccc(Cl)c(Cl)c1)NCCC1CCC(N2CCC(c3c[nH]c4ccc(O)cc34)CC2)CC1 (configuration not stated) and COc1ccc2[nH]cc(C3CC4CCC(C3)N4CCC3CCN(C(=O)/C=C/c4ccc(Cl)c(Cl)c4)CC3)c2c1 (configuration not stated) are within 1.5-fold of each other in XC50: 762 nM for the first, 624 nM for the second.

CC(=O)Nc1ccc(CN2CCC(NC(=O)c3ccc(-c4cccc(OC(C)C)c4)s3)CC2)cc1 and O=C(Nc1cccc(-c2ccc(CN3CCCC3)cc2)c1)c1ccc(F)cc1 are within 1.5-fold of each other in XC50: 1460 nM for the first, 1080 nM for the second.

Going from O=C(Nc1ccsc1)Nc1cccc(-c2cccc(-c3nc4ccccc4[nH]3)c2)c1 to O=C(Nc1cccc(-c2ccc(-c3nc4cc(F)ccc4[nH]3)cc2)c1)c1csnn1, the XC50 rises from 117 nM to 278 nM (2.4-fold).

Compared with N=C(NCCCCC1CCCCC1)c1cccc(C(=N)NCCCCC2CCCCC2)n1, N#Cc1ccc2c(c1)CCN(CCC1CCC(NC(=O)Nc3ccncc3)CC1)C2 (configuration not stated) is 2.9-fold higher in XC50: 395 nM for the first, 1130 nM for the second.

Compared with CCCc1c(C(=O)OCC)c2cc(O)ccc2n1-c1ccc(OC)cc1, COc1ccc(Nc2nc(NCc3ccco3)c3ccccc3n2)cc1 is 5.4-fold higher in XC50: 138 nM for the first, 740 nM for the second.

First: CCCN(CCC)CCCOc1ccc(C(=O)c2c(-c3ccc(OCCCN(CCC)CCC)cc3)oc3ccc(Cl)cc23)cc1
Second: COc1ccc(NC(=O)c2ccc(-c3ccc(-c4cccnc4)cc3)c(C)c2)cc1OCCN(C)C
The XC50 of the first is 1.7-fold higher: 340 nM for the first, 201 nM for the second.

Going from COc1cc(NC(=O)/C=C/c2cccc3cc[nH]c23)ccc1OCCN(C(C)C)C(C)C to Cc1ccc(NC(=O)Nc2ccc(I)c(OCCN(C)C)c2)cc1Cl, the XC50 rises from 270 nM to 564 nM (2.1-fold).

COC(=O)c1cccc(CNCc2cccc(-c3cccc(-c4nc5cc(C(F)(F)F)ccc5[nH]4)c3)c2)c1 and Cn1nccc1C(=O)NCCNCc1ccc(-c2cccc(-c3nc4cc(C(F)(F)F)ccc4[nH]3)c2)cc1 are within 1.5-fold of each other in XC50: 172 nM for the first, 117 nM for the second.

First: N#Cc1ccc(-c2ccc(C(=O)NCCCCN3CCC(c4nc5ccccc5[nH]4)CC3)cc2)cc1
Second: Cc1cc(C2CCN(CCCCNC(=O)c3ccc(NC(=O)c4ccc(Cl)cc4)cc3)CC2)c(C)cc1OCc1ccncc1
The XC50 of the first is 2-fold higher: 1010 nM for the first, 501 nM for the second.

Going from Nc1nccc(-c2ccc3c(/C=C/c4ccccc4)cnc(N)c3c2)n1 to Clc1ccc(OCc2ccccc2)c(-c2nc(-c3nc4ncc(Br)cc4[nH]3)cs2)c1, the XC50 falls from 621 nM to 214 nM (2.9-fold).

CCCCCN1CCCC(NS(=O)(=O)c2ccc(C(=O)Nc3cccc(C(F)(F)F)c3)cc2)C1 (configuration not stated) and COc1ccc(C(=O)C2CCN(CCCCNC(=O)c3ccc(NC(=O)c4ccc(Cl)cc4)cc3)CC2)c(OC)c1 are within 1.5-fold of each other in XC50: 795 nM for the first, 772 nM for the second.

CCn1c(-c2nonc2N)nc2c(-c3cccc(NC(=O)Nc4cccc(C(F)(F)F)c4)c3)ncc(OCCCN)c21 and COC(=O)c1ccc(CC(C)NCC(O)c2cccc(C(F)(F)F)c2)cc1C (configuration not stated) are within 1.5-fold of each other in XC50: 969 nM for the first, 974 nM for the second.

Cc1cc(C2CCN(CCCCNC(=O)c3ccc(NC(=O)c4ccc(Cl)cc4)cc3)CC2)c(C)cc1OCc1nccn1C and O=C(Nc1cc(Cl)ccc1Cl)N[C@H]1CCN(CCCCCNC(=O)C2CC2c2ccc(Cl)c(Cl)c2)C1 (some centres not stated) are within 1.5-fold of each other in XC50: 835 nM for the first, 770 nM for the second.

CCc1cc2c(cc1OCCN(C)C)N(C(=O)Nc1ccc(-c3ccncc3)c(Cl)c1)CC2 and COc1ccccc1CNC(=O)c1cc(Br)cc(N2CCN(c3ccncc3)CC2)c1 are within 1.5-fold of each other in XC50: 840 nM for the first, 946 nM for the second.

Going from COc1cc2nc(N[C@@H](CO)c3ccccc3)nc(NCc3ccccc3)c2cc1OC to O=C(Nc1ccccc1Cl)c1cc2ccccc2cc1O, the XC50 rises from 657 nM to 1010 nM (1.5-fold).

Going from CCCCCOc1c(CCC)cc(Cc2cnc(N)nc2N)cc1CCC to Cc1nc(N)nc(N)c1-c1ccc(Br)c(Br)c1, the XC50 falls from 898 nM to 53.6 nM (17-fold).

CC(=O)c1ccc(-c2ccccc2)s1 and C=CCn1c(Cc2ccccc2)nnc1Sc1ccc(C#N)c([N+](=O)[O-])c1 are within 1.5-fold of each other in XC50: 1080 nM for the first, 1030 nM for the second.

Cc1ccc(C(NC(=O)C2CCCCC2)c2ccc3cccnc3c2O)cc1 (configuration not stated) and O=C(c1cccc(COc2ccc3c(c2)CCN(C2CCCC2)CC3)c1)N1CCN(c2ccncc2)CC1 are within 1.5-fold of each other in XC50: 953 nM for the first, 740 nM for the second.

Going from COc1cc(CN=C(S)NN=C(C)c2ccccn2)cc(OC)c1OC to COc1cc(Br)c(S(=O)(=O)n2cc(CN3CCC(N)CC3)c3cc(Cl)ccc32)cc1OC, the XC50 rises from 396 nM to 985 nM (2.5-fold).

Compared with O=C(Nc1ccc(CN2CCOCC2)cc1)c1ccc(-c2cc(Cl)ccc2Cl)o1, CC1(C)N=C(NC(=O)c2ccc([N+](=O)[O-])cc2)N=C(N)N1OCc1ccc2ccccc2c1 is 81-fold lower in XC50: 613 nM for the first, 7.57 nM for the second.

First: CCN(CC)CCN(CCN(CC)CC)c1ccc(-c2nc3cc(Cl)c(Cl)cc3[nH]2)cc1
Second: Cc1[nH]c(C)c(-c2ccc(OCCCCSc3ccncc3)cc2)c(=O)c1Br
The XC50 of the first is 3.2-fold higher: 785 nM for the first, 246 nM for the second.

Going from CCOC(=O)c1c(C)noc1Nc1cccc(C)c1C to Cc1ccc(C)c(NC(=O)NCCNc2ccnc(Nc3ccc(F)cc3)n2)c1, the XC50 rises from 416 nM to 817 nM (2-fold).

O=C(/C=C/c1ccc(C(F)(F)F)cc1)N1CCC(CCN2CCC(c3c[nH]c4ccccc34)CC2)CC1 and ON=C1CCc2cc(-c3nc(-c4ccc(OCCN5CCCCC5)cc4)[nH]c3-c3ccncc3)ccc21 are within 1.5-fold of each other in XC50: 716 nM for the first, 804 nM for the second.

First: CC(C)(C)NCC(O)COc1ccc(Cl)cc1C1=NNC(=O)CC1 (configuration not stated)
Second: CC(C)(C)Nc1nc(Nc2cccc([N+](=O)[O-])c2)nc(-n2ccnc2)n1
The XC50 of the first is 5.4-fold lower: 150 nM for the first, 811 nM for the second.

For CCC1CCc2cc(N)cc(-c3nc4c(c(C)nn4CC)c(=O)[nH]3)c2O1 (configuration not stated), the XC50 was 1120 nM.
